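Test compounds were applied to cells in 96-well plates for 48 hours at 5 doses. Here, GI50 denotes the concentration required for 50% inhibition of growth.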 The source made the active and inactive calls. No stated cut-off is given here; in the data, active = GI50 up to about 1.1 µM and inactive = higher.
Columns and labels:
Test in all cases: NCI anticancer screen, dose series, 48 h
OVCAR-3 = system: OVCAR-3
COLO 205 = system: COLO 205
ACHN = system: ACHN
CAKI-1 = system: CAKI-1
Malme-3M = system: Malme-3M
SW-620 = system: SW-620
OVCAR-5 = system: OVCAR-5
SK-OV-3 = system: SK-OV-3
U-251 = system: U-251
HCT-116 = system: HCT-116
NCI-H460 = system: NCI-H460
SR = system: SR
NCI-H522 = system: NCI-H522
RPMI-8226 = system: RPMI-8226
K562 = system: K562

Measured: GI50

CC(=O)OC[C@@H]1[C@H]2CC(=O)O[C@H]2C[C@H]1OC(C)=O
inactive: OVCAR-3 > 100 µM | COLO 205 24.7 µM | ACHN > 100 µM | CAKI-1 > 100 µM | Malme-3M > 100 µM | SW-620 > 100 µM | OVCAR-5 > 100 µM | SK-OV-3 > 100 µM | U-251 > 100 µM | HCT-116 94 µM | NCI-H460 > 100 µM | SR > 100 µM | NCI-H522 > 100 µM | RPMI-8226 > 100 µM

C[C@]12CC[C@H](OCCC#N)CC1=CC[C@@H]1C2CC[C@]2(C)/C(=N/OCCC#N)CCC12 (stereo partly specified)
inactive: OVCAR-3 > 21 µM | COLO 205 > 100 µM | ACHN 16.7 µM | CAKI-1 26.1 µM | Malme-3M 30.1 µM | SW-620 > 100 µM | OVCAR-5 > 100 µM | SK-OV-3 > 63 µM | U-251 24.8 µM | HCT-116 > 21 µM | K562 > 22.4 µM | NCI-H460 97.7 µM | SR 4.43 µM | NCI-H522 20.9 µM | RPMI-8226 > 100 µM

CCCCCCCCCCOC(=O)NCCC
inactive: OVCAR-3 33.3 µM | COLO 205 40.5 µM | ACHN 28.8 µM | CAKI-1 35.5 µM | Malme-3M 21.4 µM | SW-620 48.6 µM | OVCAR-5 24.4 µM | SK-OV-3 54.8 µM | U-251 24.9 µM | K562 29.9 µM | NCI-H460 25.8 µM | NCI-H522 18.7 µM | RPMI-8226 17.9 µM

Cc1ccc(/C=N/NS(=O)(=O)c2ccccc2)cc1
inactive: OVCAR-3 > 100 µM | COLO 205 > 100 µM | ACHN > 100 µM | CAKI-1 > 100 µM | Malme-3M > 100 µM | SW-620 > 100 µM | OVCAR-5 > 100 µM | SK-OV-3 > 100 µM | U-251 > 100 µM | HCT-116 > 100 µM | K562 > 100 µM | NCI-H460 > 100 µM | SR > 100 µM | RPMI-8226 > 100 µM

O=C(CC1(O)C(=O)Nc2c(Cl)cc(Cl)cc21)c1ccc(F)cc1 (stereo unspecified)
inactive: OVCAR-3 37.6 µM | COLO 205 19 µM | ACHN 35.9 µM | CAKI-1 92 µM | Malme-3M 41.9 µM | SW-620 43.7 µM | OVCAR-5 64.7 µM | SK-OV-3 93.8 µM | U-251 31.3 µM | HCT-116 35.4 µM | NCI-H460 38.8 µM | SR 29.2 µM | RPMI-8226 24.9 µM

CCOC(=O)C1S/C(=N\C(=N)N[N+](=O)[O-])N=C1C (stereo unspecified)
inactive: OVCAR-3 > 100 µM | COLO 205 > 100 µM | ACHN > 100 µM | Malme-3M > 100 µM | SW-620 > 100 µM | OVCAR-5 > 100 µM | U-251 > 100 µM | HCT-116 > 100 µM | K562 > 100 µM | NCI-H460 > 100 µM | SR > 100 µM | NCI-H522 > 100 µM | RPMI-8226 > 100 µM

Cc1cc(C)nc(NS(=O)(=O)c2ccc(NC(=O)c3cccc4cc5ccccc5nc34)cc2)n1
inactive: OVCAR-3 24.8 µM | COLO 205 39.4 µM | ACHN 44.3 µM | CAKI-1 50.9 µM | Malme-3M 23.4 µM | SW-620 32.7 µM | OVCAR-5 62.2 µM | SK-OV-3 > 100 µM | U-251 30.6 µM | HCT-116 17.2 µM | K562 24.5 µM | NCI-H460 34 µM | NCI-H522 18.7 µM | RPMI-8226 21.4 µM

O=C(N/C(=C\c1cccc([N+](=O)[O-])c1)c1nc2c3c(ccc2[nH]1)C(=O)c1ccccc1C3=O)c1ccccc1
inactive: OVCAR-3 49.1 µM | ACHN 16.6 µM | CAKI-1 7.18 µM | Malme-3M 40.7 µM | SW-620 45.5 µM | OVCAR-5 26.5 µM | SK-OV-3 6.78 µM | U-251 34.8 µM | HCT-116 31.6 µM | NCI-H460 24.7 µM | SR 5.86 µM | NCI-H522 16.5 µM | RPMI-8226 14.1 µM

CC1(C)C(O)OC(O)C1(C)C (stereo unspecified)
inactive: OVCAR-3 30.9 µM | COLO 205 > 100 µM | ACHN > 100 µM | CAKI-1 > 100 µM | Malme-3M > 100 µM | SW-620 49.7 µM | OVCAR-5 > 100 µM | SK-OV-3 > 100 µM | U-251 > 100 µM | HCT-116 33.9 µM | K562 57.9 µM | NCI-H460 > 100 µM | RPMI-8226 70 µM

O=C1C(=Cc2cccs2)C(=O)N(CCc2ccccc2)S(=O)(=O)N1CCc1ccccc1
inactive: OVCAR-3 > 50 µM | COLO 205 > 50 µM | ACHN 22.6 µM | Malme-3M > 50 µM | SW-620 > 50 µM | OVCAR-5 > 50 µM | SK-OV-3 > 50 µM | U-251 12.9 µM | HCT-116 11.7 µM | K562 32.7 µM | NCI-H460 > 50 µM | SR > 50 µM | NCI-H522 15.5 µM | RPMI-8226 20.7 µM

— ChEMBL document CHEMBL1201862, “PubChem BioAssay data set” (2004)
